Data from ChEMBL document CHEMBL1255266, “Mechanisms of resistance to daptomycin in Enterococcus faecium” (2008).
In brackets after ≈: the same amount, converted by molar mass.

Columns and labels:
Enterococcus faecium [1] = assay: Antimicrobial activity against Enterococcus faecium isolate 3 from abdominal wound of patient by Etest; format: functional
Enterococcus faecium [2] = assay: Antimicrobial activity against Enterococcus faecium isolate 5 from patient blood by Etest; format: functional
Enterococcus faecium [3] = assay: Antimicrobial activity against Enterococcus faecium isolate 4 from lower extremity wound of patient by Etest; format: functional
Enterococcus faecium [4] = assay: Antimicrobial activity against Enterococcus faecium isolate 7 from abdominal wound of patient by Etest
Enterococcus faecium [5] = assay: Antimicrobial activity against Enterococcus faecium isolate 8 from right abdominal wound of patient by Etest
Enterococcus faecium [6] = assay: Antimicrobial activity against Enterococcus faecium isolate 2 from skin lesion of patient by Etest; format: functional
Enterococcus faecium [7] = assay: Antimicrobial activity against Enterococcus faecium isolate 6 from thigh wound of patient by Etest; format: functional; conditions: isolate 6, Thigh muscle
Enterococcus faecium [8] = assay: Antimicrobial activity against Enterococcus faecium isolate 1 from right groin wound of patient by Etest; format: functional
Enterococcus faecium [9] = assay: Antimicrobial activity against Enterococcus faecium ATCC 35667 by Etest; format: functional
Staphylococcus aureus = assay: microbe, parasite or virus in culture; conditions: ATCC 29213
Description: Antimicrobial activity against Staphylococcus aureus ATCC 29213 by Etest

In the case of `CN[C@H](CC(C)C)C(=O)N[C@H]1C(=O)N[C@@H](CC(N)=O)C(=O)N[C@H]2C(=O)N[C@H]3C(=O)N[C@H](C(=O)N[C@H](C(=O)O)c4cc(O)cc(O)c4-c4cc3ccc4O)[C@H](O)c3ccc(c(Cl)c3)Oc3cc2cc(c3O[C@@H]2O[C@H](CO)[C@@H](O)[C@H](O)[C@H]2O[C@H]2C[C@](C)(N)[C@H](O)[C@H](C)O2)Oc2ccc(cc2Cl)[C@H]1O` [VANCOMYCIN], the MIC (Enterococcus faecium [1]) is reported as less than 2 µg/mL, the MIC (Enterococcus faecium [2]) is reported as greater than 16 µg/mL and the MIC (Enterococcus faecium [3]) is reported as greater than 16 µg/mL. The MIC (Enterococcus faecium [4]) was greater than 16 µg/mL, the MIC (Enterococcus faecium [5]) was greater than 16 µg/mL and the MIC (Enterococcus faecium [6]) was less than 2 µg/mL. The MIC (Enterococcus faecium [7]) was greater than 16 µg/mL and the MIC (Enterococcus faecium [8]) was less than 2 µg/mL.

`CCCCCCCCCC(=O)N[C@@H](Cc1c[nH]c2ccccc12)C(=O)N[C@H](CC(N)=O)C(=O)N[C@@H](CC(=O)O)C(=O)N[C@@H]1C(=O)NCC(=O)N[C@@H](CCCN)C(=O)N[C@@H](CC(=O)O)C(=O)N[C@H](C)C(=O)N[C@@H](CC(=O)O)C(=O)NCC(=O)N[C@H](CO)C(=O)N[C@@H]([C@H](C)CC(=O)O)C(=O)N[C@@H](CC(=O)c2ccccc2N)C(=O)O[C@@H]1C` was tested, and the MIC (Enterococcus faecium [1]) was 16 µg/mL (≈ 9.87 µM), the MIC (Enterococcus faecium [2]) was 8 µg/mL (≈ 4.94 µM) and the MIC (Enterococcus faecium [9]) was 1 µg/mL (≈ 0.617 µM). The MIC (Enterococcus faecium [3]) was 16 µg/mL (≈ 9.87 µM), the MIC (Enterococcus faecium [4]) was greater than 16 µg/mL and the MIC (Enterococcus faecium [5]) was 16 µg/mL (≈ 9.87 µM). The MIC (Enterococcus faecium [6]) was 4 µg/mL (≈ 2.47 µM), the MIC (Enterococcus faecium [7]) was 16 µg/mL (≈ 9.87 µM) and the MIC (Staphylococcus aureus) was 0.25 µg/mL (≈ 0.154 µM). It also gave an MIC (Enterococcus faecium [8]) of 4 µg/mL (≈ 2.47 µM).
